The values below come from patent US20060154860A1, “Manipulating stem-progenitor cell trafficking to injured tissue and/or tumors by altering HIF-1 and/or SDF-1 activity” (priority 2004, published 2006).

In assay [1] the target is CXCR4 on human endothelial progenitor cells (EPCs) (human) (UniProt P61073). The experiment in a line: cell-based or functional assay.
In assay [2] the test system is CXCR4+ EPCs / HUVEC monolayers. The experiment in a line: Adhesion assay of DiI-labeled CXCR4+ EPCs to HUVEC monolayers. As to conditions: monolayers pre-coated for 20 minutes with recombinant SDF-1. In kind it is cell-based, human. The method, then: Confluent HUVEC monolayers were subjected to normoxic or hypoxic culture for 6 hours. Human SDF-1αβ/PBSF (100 ng/ml, Sigma) was added where indicated. DiI-labeled EPCs (5×10^4) in EBM/0.5% FBS were added to each preconditioned monolayer and pre-adhesion fluorescence was measured using a Cytofluor 2320 (Millipore). After 3 hours, nonadherent cells were washed away, and post-adhesion fluorescence was measured. The percentage of adherent
cells was calculated using the following formula: [formula] Results are representative of three independent experiments.
HIF-1α siRNA (Berra et al, “HIF Prolyl-hydroxylase 2 is the Key Oxygen Sensor Setting Low Steady-state Levels of HIF-1α in Normoxia,” Embo. J. 22:4082-4090 (2003), which is hereby incorporated by reference in its entirety) (synthesized by Qiagen) was transfected into HUVECs using RNAiFect (Qiagen) in parallel with Lamin A/C and FITC-labeled control siRNAs according to the manufacturer=3 s protocol. Cells were treated with normoxic or hypoxic conditions starting 24 hours following transfection. Gene expression and adhesion assays were performed at 48 hours.

In assay [3] the test system is EPCs. Description: Migration assay (modified transwell) of EPCs. In kind it is cell-based, human. The note with it: 6 hour migration period. The method, then: Migration was studied using a modified transwell assay. EPCs (5×10^4) were seeded onto ChemoTx filters (5.7 mm, 8 μm pore, Neuro Probe) in EBM/0.5% FBS. […] Following the 6 hour migration period, nonmigrating cells were completely wiped from the top surface of the membrane. Migrating cells adherent to the undersurface of the filters were quantified using DAPI staining (Vector) with Kodak 1D software. Results are indicative of four independent experiments.

The test system of assay [4] is SDF1 promoter. Description: SDF1 promoter luciferase reporter assay (pGL3b.SDF1.full) in HMEC-1. It is filed as cell-based, human. As to conditions: 0.1 mM cobalt chloride, 12 hours, HMEC-1 transfected with pGL3b.SDF1.full. An excerpt:
The 1.4 kb 5′ SDF1 promoter region was cloned into the luciferase reporter vector pGL3-Basic (Promega) generating pGL.SDF1.full. 5′ deletion constructs were generated from pGL.SDF1.full using unique internal restriction sites SmaI/SacI, and XhoI. HBS-only contructs (HBS1, HBS2, or both) were generated by PCR and cloned into pGL3-Promoter (Promega). HBS1 was mutated using the mega-primer method (primers listed below) (Kammann et al., “Rapid Insertional Mutagenesis of DNA by Polymerase Chain Reaction (PCR),” Nucleic Acids Res. 17:5404 (1989), which is hereby incorporated by reference in its entirety). All constructs were sequenced to confirm their identity. Reporter plasmids were co-transfected with a constitutively expressed Renilla luciferase construct (pHRL-TK, Promega) into HMECs using the Genejammer reagent (Stratagene). 48 hours after transfection, cells were incubated in hypoxia or normoxia with and without 0.1 mM cobalt chloride (CoCl2) for 12 hours. Luciferase activity was determined using the Dual Luciferase System (Promega) and data were normalized to Renilla luciferase expression from at least four independent experiments. Co-transfection experiments using plasmids for oxygen […] HIF-1α (HIF-1.ΔODD) and the HIF-1α dominant negative (HIF-1.DN) were compared to control transfections using the appropriate empty vector (pcDNA3.1 and pCEP4, respectively) for each construct. […]
In general terms: Reporter assays use an easily measured gene product as a stand-in for the process of interest.

“Also recorded” adds a separate entry of the source.

Sequence of UniProt P61073 (P61073 whole entry): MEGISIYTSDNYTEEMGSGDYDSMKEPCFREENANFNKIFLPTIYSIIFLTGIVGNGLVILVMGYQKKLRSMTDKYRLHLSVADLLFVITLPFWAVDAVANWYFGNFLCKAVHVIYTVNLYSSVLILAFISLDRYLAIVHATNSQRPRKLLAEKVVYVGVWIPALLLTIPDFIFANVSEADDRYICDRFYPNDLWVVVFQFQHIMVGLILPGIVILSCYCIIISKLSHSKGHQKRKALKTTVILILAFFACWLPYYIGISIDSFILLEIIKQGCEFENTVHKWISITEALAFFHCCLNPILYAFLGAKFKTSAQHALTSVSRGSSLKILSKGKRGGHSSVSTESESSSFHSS

Turning to “neutralizing CXCR4 antibody (Clone 44716, R&D Systems)”, in assay [1], the EPC migration toward hypoxia-conditioned media after preincubating EPCs with neutralizing CXCR4 antibodies (HM+ab) came out at 175 cells/hpf. “recombinant SDF-1: Recombinant human SDF-1αβ/PBSF (Sigma), chemokine”: the “adhesion of CXCR4+ EPCs to normoxic HUVEC monolayers” value in assay [2] is listed as “Increased adhesion; also recorded: adhered more EPCs”. Besides, in assay [3], the “EPC migration, effect in words” value is listed as “EPC migration increased”. `[Cl][Co][Cl]` [cobalt chloride]: the SDF1-specific luciferase expression entry in assay [4] is “four-fold”.
